Test in all cases: NCI tumour cell line growth inhibition, 48 h
Assay [1] has as its system ACHN renal.
Assay [2] concerns CAKI-1 renal.
Assay [3] has as its system COLO 205 colon.
Assay [4] deals with HT29 colon.
In assay [5] the test system is MCF7 breast.
The test system of assay [6] is MOLT-4 leukemia.
Assay [7] relates to OVCAR-5 ovarian.
Assay [8] relates to SF-295 CNS.
Assay [9] deals with SK-MEL-2 melanoma.
In assay [10] the test system is UACC-257 melanoma.

The structures appear in SMILES notation.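 Step 1: Grow cells in 96-well plates. Step 2: Expose to compound for 48 hours at 5 concentrations. Step 3: Interpolate endpoints linearly; if unreached, use highest concentration. GI50: concentration for 50% inhibition of growth. TGI is the concentration that stops growth completely.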 Where only a bound is given, the exact number is not on record here.

As for `COc1cc(/C=N/Nc2ncnc3c2cnn3C(C)C)ccc1O`, the GI50 is 5.95 µM in assay [1]; 6.43 µM in assay [2]; 12.2 µM in assay [3]; 8.18 µM in [4]; 4.68 µM in assay [5]; 6.53 µM in [6]. For the same compound, the GI50 in assay [7] was 8.83 µM; in assay [8], 9.41 µM; in [9], 6.82 µM; in assay [10], 14.9 µM. The TGI in [1] is > 25 µM; in [2], > 25 µM; in assay [3], > 25 µM; in assay [4] it was > 25 µM; in assay [5], 16.1 µM; in assay [6] it was > 20.7 µM. The TGI was > 25 µM in [7], > 25 µM in assay [8], 18.7 µM in [9] and > 25 µM in assay [10].
For the compound `O=C(COc1ccc(/C=C2\Oc3ccccc3C2=O)cc1)Nc1nccs1`, the GI50 in assay [1] is > 100 µM; in assay [2] it was 12.1 µM; in assay [3] it was > 100 µM; in assay [4] it was > 100 µM; in assay [5] it was 43.2 µM; in [6] it was 3.31 µM. Further, the GI50 is > 100 µM in assay [7], 41.4 µM in [8], 39 µM in assay [9] and 39.3 µM in [10]. Further, the TGI in [1] is > 100 µM; in [2], > 100 µM; in [3], > 100 µM; in assay [4], > 100 µM; in [5] it was > 100 µM; in assay [6] it was 19.1 µM. For the same compound, the TGI in [7], in assay [8], in assay [9] and in assay [10] was > 100 µM throughout.
Take `COc1cccc(C(=O)Nc2ccc(CN3CCc4nc5cc(OC)c(OC)cc5cc43)cc2)c1`: the GI50 is 3.08 µM in [1]; 3 µM in [2]; 2.69 µM in assay [3]; 2.59 µM in [4]; 3.19 µM in assay [5]; 2.85 µM in assay [6]. The GI50 in assay [7] is 12.9 µM; in [8], 5.72 µM; in assay [9] it was 8.8 µM; in [10] it was 5.47 µM. For the same compound, the TGI in [1] was > 100 µM; in assay [2], 20.9 µM; in assay [3], 7.03 µM; in assay [4] it was 7.05 µM; in [5], 20.5 µM; in assay [6], 10.7 µM. In addition, the TGI in assay [7] is > 100 µM; in assay [8], 28.1 µM; in assay [9], 22.4 µM; in assay [10], 92.6 µM.
For `N#CC(C#N)=Cc1c(-c2ccccc2)[nH]c2ccccc12`, the GI50 in [1] is 7.07 µM; in assay [2], 5.66 µM; in assay [3], 1.76 µM; in [4], 0.526 µM; in assay [5], 1.07 µM; in assay [6], 13.3 µM. For the same compound, the GI50 was 19.6 µM in assay [7], 1.59 µM in assay [8], 19.1 µM in assay [9] and 23.9 µM in assay [10]. The TGI in [1] was > 55.9 µM; in assay [2], 48.7 µM; in assay [3] it was 15 µM; in assay [4] it was > 53.9 µM; in assay [5] it was > 47.2 µM; in [6], > 75.1 µM. In addition, the TGI in assay [7] was > 100 µM; in assay [8], 15.5 µM; in assay [9], > 70.6 µM; in assay [10], > 64.7 µM.
Turning to `CC[C@@]1(OC(=O)CN)C(=O)OCc2c1cc1n(c2=O)Cc2cc3cc4c(cc3nc2-1)OCO4`, the GI50 in assay [1] is < 0.01 µM; in assay [2], < 0.01 µM; in assay [3] it was 0.127 µM; in assay [4], < 0.01 µM; in assay [5] it was < 0.01 µM; in assay [6], < 0.01 µM. Moreover, the GI50 in [7] was < 0.0169 µM; in [8] it was < 0.01 µM; in assay [9] it was 0.105 µM; in assay [10], < 0.0234 µM. In addition, the TGI was < 0.01 µM in assay [1]; 1.53 µM in assay [3]; > 100 µM in assay [5]; 0.232 µM in assay [7]; < 0.01 µM in assay [8]; 0.438 µM in assay [9]. The TGI in assay [10] worked out at 0.417 µM.
On to `CC(=O)Nc1ccc(-c2c3nc(c(-c4cc5ccccc5[n+](C)c4)c4ccc([nH]4)c(-c4ccc(NC(C)=O)cc4)c4nc(c(-c5cc6ccccc6[n+](C)c5)c5ccc2[nH]5)C=C4)C=C3)cc1`, for which the GI50 was 10.3 µM in assay [1]; 4.81 µM in assay [2]; 12.9 µM in assay [3]; 40.3 µM in assay [4]; 34.3 µM in assay [5]; > 50 µM in assay [6]. Moreover, the GI50 in assay [7] is 8.54 µM; in assay [8] it was 6.65 µM; in assay [9] it was 15 µM; in assay [10], 11.7 µM. For the same compound, the TGI was 26.6 µM in assay [1]; 29.7 µM in [2]; 26.7 µM in assay [3]; > 50 µM in assay [4]; > 50 µM in assay [5]; > 50 µM in [6]. For the same compound, the TGI was > 50 µM in [7], 22.5 µM in [8], > 50 µM in assay [9] and 47.6 µM in assay [10].

The values above are taken from PubChem BioAssay (NCI).
